Measurements as given in patent publication US8846653B2, “Delta-tocotrienol treatment and prevention of pancreatic cancer” (University of South Florida, priority 2006, dated 2014).

Experiments:
Type in all cases: cell-based, human
BXPC3 cells = assay: MTT assay of BXPC3 cultures, single 50 μM dose; design: MTT assay result, run 1 / MTT assay result, run 2 / MTT assay result, run 3 / MTT assay result, run 4 / MTT assay result, run 5 / MTT assay result, run 6 / MTT assay result, run 7 / MTT assay result, av (average) / MTT assay result, av-blank / MTT assay result, av: unit not given here; details: BXPC3, 50 μM; for MTT assay result, av-blank: average minus blank
Protocol: (§1) BXPC3 cells were cultured in complete […] media containing 10% fetal bovine serum (FBS) and 1% penicillin-streptomycin, and 1% L-glutamine. BxPc-3 pancreatic cancer cells were cultured in complete RPMI media containing 10% fetal bovine serum (FBS), and 1% penicillin-streptomycin, 1% HEPES buffer, 1% sodium pyruvate and 1% L-glutamine HPDE6-C7 cells were cultured in serum-free keratinocyte SFM media. All cells were maintained at 37° C. in a humidified incubator with 5% CO2. The cells were treated with a single 50 μM dose of vehicle (vehicle only, may be a solvent), T3 alpha (alpha tocotrienol), T3 beta (beta tocotrienol), T3 gamma (gamma tocotrienol), T3 delta (delta tocotrienol), T alpha (alpha tocopherol), T beta (beta tocopherol), TS (tocopherol succinate), GG (geranylgeraniol), SA (succinic acid). A control (no treatment) culture was grown alongside the treatments for comparison. Cell viability was measured using MTT assay at preselect times of 48 or 120 hours after treatment.

MiaPaCa-2 cells [1] = assay: MTS assay of MiaPaCa2 cultures, single 50 μM dose; details: MiaPaCa2, 50 μM
Protocol: as §1, with “MiaPaCa-2” for “BXPC3”, “Cell viability was measured using MTT assay at preselect times of 48 or 120 hours after treatment.” left out

MiaPaCa-2 cells [2] = assay: MTT assay of MiaPaCa2 cultures, single 50 μM dose; design: rel amt (relative value set to the control): unit not given here; details: MiaPaCa2, 50 μM; for MTT assay result, av-blank: average minus blank; for MTT assay result, av: average of 7 runs
Protocol: MiaPaCa-2, BxPc-3, and HPDE6-C7 cells were cultured as described above, and treated with a single 50 μM dose of vehicle (ethanol extracted olive oil), T3 alpha (alpha tocotrienol), T3 beta (beta tocotrienol), T3 gamma (gamma tocotrienol), T3 delta (delta tocotrienol), T alpha (alpha tocopherol), T beta (beta tocopherol), TS (tocopherol succinate), GG (geranylgeraniol), SA (succinic acid). A control culture (vehicle only with no treatment) was grown alongside the treatments for comparison. Cell viability was measured using MTT assay at preselect times of 48 or 120 hours after treatment.

SMILES: CC(C)=CCC/C(C)=C/CC/C(C)=C/CC/C(C)=C/CO [GG, geranylgeraniol]
- rel amt (relative value set to the control) (BXPC3 cells; 48 hours): 108
- MTT assay result, av-blank (BXPC3 cells; 48 hours): 0.246
- MTT assay result, av (average) (BXPC3 cells; 48 hours, average of 7 runs): 0.295
- MTT assay result, run 1 (BXPC3 cells; 48 hours): 0.308
- MTT assay result, run 2 (BXPC3 cells; 48 hours): 0.272
- MTT assay result, run 3 (BXPC3 cells; 48 hours): 0.299
- MTT assay result, run 4 (BXPC3 cells; 48 hours): 0.291
- MTT assay result, run 5 (BXPC3 cells; 48 hours): 0.299
- MTT assay result, run 6 (BXPC3 cells; 48 hours): 0.3
- MTT assay result, run 7 (BXPC3 cells; 48 hours): 0.294
- rel amt (relative value set to the control) (BXPC3 cells; 120 hours (5 days)): 106
- MTT assay result, av-blank (BXPC3 cells; 120 hours (5 days)): 0.610
- MTT assay result, av (BXPC3 cells; 120 hours (5 days), average of 7 runs): 0.665
- MTT assay result, run 1 (BXPC3 cells; 120 hours (5 days)): 0.621
- MTT assay result, run 2 (BXPC3 cells; 120 hours (5 days)): 0.655
- MTT assay result, run 3 (BXPC3 cells; 120 hours (5 days)): 0.672
- MTT assay result, run 4 (BXPC3 cells; 120 hours (5 days)): 0.663
- MTT assay result, run 5 (BXPC3 cells; 120 hours (5 days)): 0.657
- MTT assay result, run 6 (BXPC3 cells; 120 hours (5 days)): 0.724
- MTT assay result, run 7 (BXPC3 cells; 120 hours (5 days)): 0.66
- rel amt (relative value set to the control) (MiaPaCa-2 cells [1]; 24 hours): 82
- MTS assay result, run 1 (MiaPaCa-2 cells [1]; 24 hours): 0.186
- MTS assay result, run 2 (MiaPaCa-2 cells [1]; 24 hours): 0.166
- MTS assay result, run 3 (MiaPaCa-2 cells [1]; 24 hours): 0.175
- MTS assay result, run 4 (MiaPaCa-2 cells [1]; 24 hours): 0.18
- MTS assay result, run 5 (MiaPaCa-2 cells [1]; 24 hours): 0.196
- MTS assay result, run 6 (MiaPaCa-2 cells [1]; 24 hours): 0.199
- MTS assay result, run 7 (MiaPaCa-2 cells [1]; 24 hours): 0.184
- MTS assay result, run 8 (MiaPaCa-2 cells [1]; 24 hours): 0.178
- MTS assay result, run 9 (MiaPaCa-2 cells [1]; 24 hours): 0.183
- rel amt (relative value set to the control) (MiaPaCa-2 cells [1]; 48 hours): 53
- MTS assay result, run 1 (MiaPaCa-2 cells [1]; 48 hours): 0.154
- MTS assay result, run 2 (MiaPaCa-2 cells [1]; 48 hours): 0.194
- MTS assay result, run 3 (MiaPaCa-2 cells [1]; 48 hours): 0.181
- MTS assay result, run 4 (MiaPaCa-2 cells [1]; 48 hours): 0.198
- MTS assay result, run 5 (MiaPaCa-2 cells [1]; 48 hours): 0.236
- MTS assay result, run 6 (MiaPaCa-2 cells [1]; 48 hours): 0.198
- MTS assay result, run 7 (MiaPaCa-2 cells [1]; 48 hours): 0.193
- MTS assay result, run 8 (MiaPaCa-2 cells [1]; 48 hours): 0.192
- MTS assay result, run 9 (MiaPaCa-2 cells [1]; 48 hours): 0.193
- rel amt (relative value set to the control) (MiaPaCa-2 cells [1]; 72 hours): 158
- MTS assay result, run 1 (MiaPaCa-2 cells [1]; 72 hours): 0.784
- MTS assay result, run 2 (MiaPaCa-2 cells [1]; 72 hours): 0.713
- MTS assay result, run 3 (MiaPaCa-2 cells [1]; 72 hours): 0.757
- MTS assay result, run 4 (MiaPaCa-2 cells [1]; 72 hours): 0.734
- MTS assay result, run 5 (MiaPaCa-2 cells [1]; 72 hours): 0.682
- MTS assay result, run 6 (MiaPaCa-2 cells [1]; 72 hours): 0.665
- MTS assay result, run 7 (MiaPaCa-2 cells [1]; 72 hours): 0.65
- MTS assay result, run 8 (MiaPaCa-2 cells [1]; 72 hours): 0.627
- MTS assay result, run 9 (MiaPaCa-2 cells [1]; 72 hours): 0.702
- rel amt (relative value set to the control) (MiaPaCa-2 cells [2]; 48 hours): 92
- MTT assay result, av-blank (MiaPaCa-2 cells [2]; 48 hours): 0.285
- MTT assay result, av (MiaPaCa-2 cells [2]; 48 hours): 0.331
- MTT assay result, run 1 (MiaPaCa-2 cells [2]; 48 hours): 0.329
- MTT assay result, run 2 (MiaPaCa-2 cells [2]; 48 hours): 0.339
- MTT assay result, run 3 (MiaPaCa-2 cells [2]; 48 hours): 0.321
- MTT assay result, run 4 (MiaPaCa-2 cells [2]; 48 hours): 0.328
- MTT assay result, run 5 (MiaPaCa-2 cells [2]; 48 hours): 0.342
- MTT assay result, run 6 (MiaPaCa-2 cells [2]; 48 hours): 0.317
- MTT assay result, run 7 (MiaPaCa-2 cells [2]; 48 hours): 0.341
- rel amt (relative value set to the control) (MiaPaCa-2 cells [2]; 120 hours (5 days)): 93
- MTT assay result, av-blank (MiaPaCa-2 cells [2]; 120 hours (5 days)): 1.679
- MTT assay result, av (MiaPaCa-2 cells [2]; 120 hours (5 days)): 1.731
- MTT assay result, run 1 (MiaPaCa-2 cells [2]; 120 hours (5 days)): 1.738
- MTT assay result, run 2 (MiaPaCa-2 cells [2]; 120 hours (5 days)): 1.608
- MTT assay result, run 3 (MiaPaCa-2 cells [2]; 120 hours (5 days)): 1.577
- MTT assay result, run 4 (MiaPaCa-2 cells [2]; 120 hours (5 days)): 1.744
- MTT assay result, run 5 (MiaPaCa-2 cells [2]; 120 hours (5 days)): 2.134
- MTT assay result, run 6 (MiaPaCa-2 cells [2]; 120 hours (5 days)): 1.606
- MTT assay result, run 7 (MiaPaCa-2 cells [2]; 120 hours (5 days)): 1.711
